According to PubChem BioAssay (NCI):
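Dose response: 5 concentrations. Exposure: 48 h. Format: 96-well plates. Endpoint: linear interpolation; highest concentration if not reached. GI50: concentration for 50% inhibition of growth. Definition used: TGI = concentration required for complete inhibition of growth.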

Columns and labels:
Test in all cases: inhibition of tumour cell growth, NCI panel, 48 h
UACC-62 melanoma = system: UACC-62 melanoma
SNB-75 CNS = system: SNB-75 CNS
OVCAR-8 ovarian = system: OVCAR-8 ovarian
786-0 renal = system: 786-0 renal
NCI-H460 lung = system: NCI-H460 lung
A549 NSCLC = system: A549 NSCLC
HCT-116 colon = system: HCT-116 colon
OVCAR-3 ovarian = system: OVCAR-3 ovarian
SN12C renal = system: SN12C renal
RXF 393 renal = system: RXF 393 renal

SMILES | GI50 (UACC-62 melanoma) [µM] | TGI (UACC-62 melanoma) [µM] | GI50 (SNB-75 CNS) [µM] | TGI (SNB-75 CNS) [µM] | GI50 (OVCAR-8 ovarian) [µM] | TGI (OVCAR-8 ovarian) [µM] | GI50 (786-0 renal) [µM] | TGI (786-0 renal) [µM] | GI50 (NCI-H460 lung) [µM] | TGI (NCI-H460 lung) [µM] | GI50 (A549 NSCLC) [µM] | TGI (A549 NSCLC) [µM] | GI50 (HCT-116 colon) [µM] | TGI (HCT-116 colon) [µM] | GI50 (OVCAR-3 ovarian) [µM] | TGI (OVCAR-3 ovarian) [µM] | GI50 (SN12C renal) [µM] | TGI (SN12C renal) [µM] | GI50 (RXF 393 renal) [µM] | TGI (RXF 393 renal) [µM]
CN(C)CCNC(=O)c1ccc(Nc2nc3ccccc3c3occc23)cc1 | 1.35 | 2.71 | 10.5 | 25.5 | 2.08 | 7.96 | 2.57 | 6.8 | 28.5 | > 100 | 4.08 | 16.1 | 1.66 | 3.02 | 2.4 | 7.87 | 2.5 | 7.87 |  | 
Oc1ccc2ccccc2c1C=NCCCN=Cc1c(O)ccc2ccccc12 | 4.27 | 16.8 |  |  | 32.4 | > 100 | 17.4 | 40.7 | 9.35 | > 100 | 32.1 | > 100 | 10 | 31.4 | 3.31 | 14.8 |  |  | 21.8 | 86.2
C/C(=N\NC(=S)N1CCCCCC1)c1nccnc1C |  | 1.3 |  | 21.9 |  | > 100 |  | > 100 |  |  |  | 30.6 |  |  |  |  |  | > 100 |  | 7.06
C=C1C(=O)O[C@@H]2C[C@@H]1CC[C@]1(C)O[C@H]1CC[C@@]1(C)O[C@@H]1CC[C@@]2(C)O | 42 | > 100 |  |  | 30.7 | > 100 | 27.7 | 89.9 | > 100 | > 100 | > 100 | > 100 | 23.1 | 65.9 | 16.2 | 51.9 | 22.5 | 61.5 | 55.9 | > 100
CN/N=C(/Cc1occc(=O)c1O)C(=O)Nc1ccc(C)c(C)c1 |  | > 100 |  |  |  | > 100 |  | > 100 |  | > 100 |  | > 100 |  | > 100 |  | > 100 |  | > 100 |  | 
CC(C)C(C(=O)O)N(CC1(O)OCC(O)C(O)C1O)N=O (centres undefined) |  | > 100 |  | > 100 |  | > 100 |  | > 100 |  | > 100 |  | > 100 |  | > 100 |  | > 100 |  |  |  | > 100
CC1=C(C)C(=O)c2c(c(C(=O)c3ccccc3)c3nc4ccccc4n3c2C)C1=O | 35 | > 100 | 15.8 | 40.3 | 39.7 | > 100 | 26.8 | 95.2 | 63.3 | > 100 | > 100 | > 100 | 87.2 | > 100 | > 100 | > 100 | > 100 | > 100 |  | 
O=C1NC(=O)C(C(=O)C(=O)Nc2ccc(Br)cc2)C(=O)N1 |  | > 100 |  | > 100 |  | > 100 |  | > 100 |  |  |  | > 100 |  | > 100 |  | > 100 |  | > 100 |  | > 100
Oc1cccc2c1NC1=C(CCC/C1=C\c1ccccc1)C2 |  |  |  |  |  | > 100 |  | > 100 |  | > 100 |  | > 100 |  | > 100 |  | > 100 |  |  |  | 
O=S(=O)([O-])[O-].[OH3+].[OH3+].[OH3+].[Ru+2].c1ccccc1 |  |  | > 100 | > 100 | > 100 | > 100 | > 100 | > 100 | > 100 | > 100 | > 100 | > 100 | > 100 | > 100 | > 100 | > 100 | > 100 | > 100 |  | 
CC(Cn1c2c3ccccc3ccc2c2oc(=O)c3ccccc3c21)N(C)C (centres undefined) |  | > 100 |  | > 100 |  | > 100 |  | > 100 |  | > 100 |  | > 100 |  | > 100 |  | > 100 |  |  |  | 
CN(C)c1ccc(-c2cc(=O)c3ccccc3[nH]2)cc1 |  |  |  |  |  | > 100 |  | > 100 |  | > 100 |  | > 100 |  | > 100 |  | > 100 |  | > 100 |  | > 100
CCN(CC)CCCN(c1cc(OC)cc2nccnc12)S(=O)(=O)c1ccc(C)cc1 |  | > 100 |  | > 100 |  | > 100 |  | > 100 |  | > 100 |  | > 100 |  |  |  | > 100 |  | > 100 |  | > 100
CCCc1c2c([nH]c(=O)c1C)C(=O)c1[nH]c(=O)c(C)c(CCC)c1C2=O |  |  |  | 55.9 |  | 17.8 |  | > 100 |  | 77.3 |  | 72.7 |  | 36.7 |  | 5.97 |  | 22.2 |  | 69.2
CCN1C(=O)C/C(=C\C(C)=O)Nc2ccccc21 |  | > 100 |  | > 67.1 |  | > 100 |  | > 100 |  | > 100 |  | > 100 |  | > 100 |  | > 100 |  |  |  | > 100
CNc1ccccc1C(=O)N/N=C/C=C/c1ccccc1 | 0.816 | 32.7 | 0.673 |  | 3.41 | > 100 | 15.6 | > 100 | 0.503 | > 41.9 | 1.06 | > 100 | 0.499 | > 100 | 0.563 | > 100 | 3.22 | > 100 |  | 
CC(=O)N1CCC2(C=Nc3ccccc32)CC1 |  | > 100 |  | > 100 |  | > 100 |  | > 100 |  | > 100 |  | > 100 |  | > 100 |  | > 100 |  |  |  | 
O=C(Cc1nc2ccccc2s1)C(=O)Nc1ccc(Cl)cc1 |  | > 100 |  | > 100 |  | > 100 |  | > 100 |  | > 100 |  | > 100 |  | > 100 |  | > 100 |  | > 100 |  | 
CCNc1nnc(CSc2nc(-c3ccccc3)c(-c3ccccc3)[nH]2)s1 |  |  |  | 82.6 |  | 30 |  | 56.6 |  | 59.2 |  | 69.5 |  | 38.8 |  | 37.1 |  | 56.5 |  | 
CC(O)C1OC(O)C2OC(C)(C)OC12 (centres undefined) |  | > 100 |  | > 100 |  | > 100 |  | > 100 |  | > 100 |  | > 100 |  | > 100 |  | > 100 |  | > 100 |  | 
